# Assay results as given in the supplement of paper PMC4862054.
# Legend:
# Settings in all cases: 72 h
# Hs578T [1] = tested on: Hs578T
# Method: (§1)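 Drug sensitivity and resistance testing (DSRT) of breast cancer cell lines in 384-well plates, 5 concentrations in 10-fold dilutions over a compound-specific 10,000-fold range. After 72 h, cytotoxicity was read by CellTox Green fluorescence and viability by CellTiter-Glo luminescence (multiplexed), normalised to DMSO and benzethonium chloride controls. EC50 is the inflection point of the fitted dose-response curve (bottom asymptote free, so it can be relative for partial curves) and is censored at the highest tested concentration. Rows with DSS 0 (no meaningful response) were excluded.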
# CAL-148 [2] = tested on: CAL-148
# Procedure, shortened: (§2)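 Rows with a drug sensitivity score of zero were dropped, and EC50 was taken from the fitted percent-inhibition dose-response curve, censored at the highest concentration. Data were normalised on each plate to vehicle and a positive kill control and checked by Z'-factor. The assay seeded breast cancer cell lines in 20 µl onto 384-well plates pre-loaded with compound in 5 µl medium for 72 h, then added 2.5 µl CellTiter-Blue for 2 h at 37 °C and read fluorescence at 560/590 nm.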
# CAL-51 [3] = tested on: CAL-51
# Procedure, shortened: as §2
# CAL-85-1 [4] = tested on: CAL-85-1
# Procedure, shortened: as §2
# DU-4475 [5] = tested on: DU-4475
# Procedure, shortened: as §2
# HDQ-P1 [6] = tested on: HDQ-P1
# Procedure, shortened: as §2
# MDA-MB-453 [7] = tested on: MDA-MB-453
# Procedure, shortened: as §2
# BT-474 [8] = tested on: BT-474
# Procedure, shortened: as §2
# BT-549 [9] = tested on: BT-549
# Procedure, shortened: as §2
# CAL-120 [10] = tested on: CAL-120
# Procedure, shortened: as §2
# Hs578T [11] = tested on: Hs578T; remark: listed apart in the source
# Procedure, shortened: as §2
# MDA-MB-436 [12] = tested on: MDA-MB-436
# Procedure, shortened: as §2
# MDA-MB-468 [13] = tested on: MDA-MB-468
# Procedure, shortened: as §2
# MFM-223 [14] = tested on: MFM-223
# Procedure, shortened: as §2
# SK-BR-3 [15] = tested on: SK-BR-3
# Procedure, shortened: as §2
# MDA-MB-468 [16] = tested on: MDA-MB-468; remark: listed apart in the source
# Method: as §1
# CAL-120 [17] = tested on: CAL-120; remark: listed apart in the source
# Procedure, shortened: (§3)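 Breast cancer cell lines in 20 µl suspension were added to 384-well plates already holding compound at 5 concentrations, spaced in 10-fold steps across a compound-specific 10,000-fold range, and incubated for 72 h. CellTox Green fluorescence (485/520 nm) was read first to measure cell death, followed by CellTiter-Glo luminescence for viability after 10 min at room temperature. Each plate was normalised to 0.1 % DMSO and a positive kill control. EC50 values came from dose-response curve fits and were censored at the top concentration.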
# BT-474 [18] = tested on: BT-474; remark: listed apart in the source
# Procedure, shortened: as §3
# BT-549 [19] = tested on: BT-549; remark: listed apart in the source
# Procedure, shortened: as §3
# CAL-148 [20] = tested on: CAL-148; remark: listed apart in the source
# Procedure, shortened: as §3
# CAL-51 [21] = tested on: CAL-51; remark: listed apart in the source
# Procedure, shortened: as §3
# CAL-85-1 [22] = tested on: CAL-85-1; remark: listed apart in the source
# Procedure, shortened: as §3
# DU-4475 [23] = tested on: DU-4475; remark: listed apart in the source
# Procedure, shortened: as §3
# HCC1143 = tested on: HCC1143
# Procedure, shortened: as §3
# HCC1599 = tested on: HCC1599
# Procedure, shortened: as §3
# HCC1937 = tested on: HCC1937
# Procedure, shortened: as §3
# HDQ-P1 [24] = tested on: HDQ-P1; remark: listed apart in the source
# Procedure, shortened: as §3
# MDA-MB-231 [25] = tested on: MDA-MB-231
# Procedure, shortened: as §3
# MDA-MB-436 [26] = tested on: MDA-MB-436; remark: listed apart in the source
# Procedure, shortened: as §3
# MDA-MB-453 [27] = tested on: MDA-MB-453; remark: listed apart in the source
# Procedure, shortened: as §3
# MDA-MB-468 [28] = tested on: MDA-MB-468; remark: listed apart in the source
# Procedure, shortened: as §3
# MFM-223 [29] = tested on: MFM-223; remark: listed apart in the source
# Procedure, shortened: as §3
# SK-BR-3 [30] = tested on: SK-BR-3; remark: listed apart in the source
# Procedure, shortened: as §3
# BT-474 [31] = tested on: BT-474; remark: listed apart in the source
# Method: as §1
# BT-549 [32] = tested on: BT-549; remark: listed apart in the source
# Method: as §1
# CAL-51 [33] = tested on: CAL-51; remark: listed apart in the source
# Method: as §1
# Hs578T [34] = tested on: Hs578T; remark: listed apart in the source
# Procedure, shortened: as §3
# MDA-MB-231 [35] = tested on: MDA-MB-231; remark: listed apart in the source
# Method: as §1
# MDA-MB-436 [36] = tested on: MDA-MB-436; remark: listed apart in the source
# Method: as §1
structure (smiles),measurement,setting,value
N#Cc1ccc(C(c2ccc(C#N)cc2)n2cncn2)cc1 [Letrozole],"EC50, CellTox Green",Hs578T [1],> 10000 nM
CCN(CC)CCCC(C)Nc1c2ccc(Cl)cc2nc2ccc(OC)cc12 (stereo not given) [Mepacrine],"EC50, CellTiter-Blue viability",CAL-148 [2],1140 nM
same,"EC50, CellTiter-Blue viability",CAL-51 [3],1950 nM
same,"EC50, CellTiter-Blue viability",CAL-85-1 [4],1800 nM
same,"EC50, CellTiter-Blue viability",DU-4475 [5],1600 nM
same,"EC50, CellTiter-Blue viability",HDQ-P1 [6],833 nM
same,"EC50, CellTiter-Blue viability",MDA-MB-453 [7],1260 nM
same,"EC50, CellTiter-Blue viability",BT-474 [8],1760 nM
same,"EC50, CellTiter-Blue viability",BT-549 [9],1440 nM
same,"EC50, CellTiter-Blue viability",CAL-120 [10],1120 nM
same,"EC50, CellTiter-Blue viability",Hs578T [11],1980 nM
same,"EC50, CellTiter-Blue viability",MDA-MB-436 [12],1290 nM
same,"EC50, CellTiter-Blue viability",MDA-MB-468 [13],1430 nM
same,"EC50, CellTiter-Blue viability",MFM-223 [14],2220 nM
same,"EC50, CellTiter-Blue viability",SK-BR-3 [15],1520 nM
same,"EC50, CellTox Green",MDA-MB-468 [16],> 50000 nM
C[C@H]1C[C@@H]2[C@H]([C@@H](O)C[C@@]3(C)[C@H]2CC[C@]3(O)C(=O)CO)[C@@]2(C)C=CC(=O)C=C12 [Methylprednisolone],"EC50, CellTiter-Glo",CAL-120 [17],23.5 nM
same,"EC50, CellTiter-Blue viability",MDA-MB-453 [7],27.7 nM
same,"EC50, CellTiter-Blue viability",BT-549 [9],520 nM
O=C(O)C(=O)O.[NH-][C@@H]1CCCC[C@H]1[NH-].[Pt+2] [Oxaliplatin],"EC50, CellTiter-Blue viability",CAL-148 [2],5670 nM
same,"EC50, CellTiter-Blue viability",CAL-51 [3],9110 nM
same,"EC50, CellTiter-Blue viability",DU-4475 [5],9220 nM
same,"EC50, CellTiter-Blue viability",MDA-MB-453 [7],7470 nM
same,"EC50, CellTiter-Blue viability",BT-549 [9],3550 nM
same,"EC50, CellTiter-Blue viability",MDA-MB-436 [12],4310 nM
same,"EC50, CellTiter-Blue viability",MDA-MB-468 [13],3250 nM
same,"EC50, CellTiter-Blue viability",SK-BR-3 [15],9660 nM
C=CCc1cccc(/C=N/NC(=O)CN2CCN(Cc3ccccc3)CC2)c1O [PAC-1],"EC50, CellTiter-Glo",BT-474 [18],3910 nM
same,"EC50, CellTiter-Glo",BT-549 [19],1230 nM
same,"EC50, CellTiter-Glo",CAL-120 [17],3790 nM
same,"EC50, CellTiter-Glo",CAL-148 [20],6670 nM
same,"EC50, CellTiter-Glo",CAL-51 [21],1620 nM
same,"EC50, CellTiter-Glo",CAL-85-1 [22],5250 nM
same,"EC50, CellTiter-Glo",DU-4475 [23],4350 nM
same,"EC50, CellTiter-Glo",HCC1143,6700 nM
same,"EC50, CellTiter-Glo",HCC1599,7690 nM
same,"EC50, CellTiter-Glo",HCC1937,5300 nM
same,"EC50, CellTiter-Glo",HDQ-P1 [24],4980 nM
same,"EC50, CellTiter-Glo",MDA-MB-231 [25],3100 nM
same,"EC50, CellTiter-Glo",MDA-MB-436 [26],3480 nM
same,"EC50, CellTiter-Glo",MDA-MB-453 [27],2610 nM
same,"EC50, CellTiter-Glo",MDA-MB-468 [28],4580 nM
same,"EC50, CellTiter-Glo",MFM-223 [29],8680 nM
same,"EC50, CellTiter-Glo",SK-BR-3 [30],5200 nM
same,"EC50, CellTox Green",BT-474 [31],3520 nM
same,"EC50, CellTox Green",BT-549 [32],1190 nM
same,"EC50, CellTox Green",CAL-51 [33],413 nM
Nc1nc2[nH]cc(CCc3ccc(C(=O)N[C@@H](CCC(=O)O)C(=O)O)cc3)c2c(=O)[nH]1 [Pemetrexed],"EC50, CellTiter-Glo",BT-474 [18],408 nM
same,"EC50, CellTiter-Glo",CAL-51 [21],2.23 nM
same,"EC50, CellTiter-Glo",CAL-85-1 [22],41.1 nM
same,"EC50, CellTiter-Glo",HCC1937,64.1 nM
same,"EC50, CellTiter-Glo",Hs578T [34],47.4 nM
same,"EC50, CellTiter-Glo",MDA-MB-231 [25],652 nM
same,"EC50, CellTiter-Glo",MDA-MB-436 [26],30.3 nM
same,"EC50, CellTiter-Glo",SK-BR-3 [30],23.1 nM
same,"EC50, CellTiter-Blue viability",CAL-85-1 [4],878 nM
same,"EC50, CellTiter-Blue viability",CAL-120 [10],> 10000 nM
same,"EC50, CellTiter-Blue viability",SK-BR-3 [15],116 nM
same,"EC50, CellTox Green",Hs578T [1],9350 nM
same,"EC50, CellTox Green",MDA-MB-231 [35],2830 nM
same,"EC50, CellTox Green",MDA-MB-468 [16],8620 nM
CC[C@H](C)C(=O)O[C@H]1C[C@H](O)C=C2C=C[C@H](C)[C@H](CC[C@@H](O)C[C@@H](O)CC(=O)O)[C@H]21 [Pravastatin],"EC50, CellTiter-Glo",BT-474 [18],2340 nM
same,"EC50, CellTiter-Glo",BT-549 [19],2640 nM
same,"EC50, CellTiter-Glo",CAL-120 [17],2310 nM
same,"EC50, CellTiter-Glo",CAL-148 [20],6540 nM
same,"EC50, CellTiter-Glo",CAL-51 [21],78 nM
same,"EC50, CellTiter-Glo",CAL-85-1 [22],8620 nM
same,"EC50, CellTiter-Glo",DU-4475 [23],6590 nM
same,"EC50, CellTiter-Glo",HCC1143,2450 nM
same,"EC50, CellTiter-Glo",HCC1599,3060 nM
same,"EC50, CellTiter-Glo",HCC1937,5960 nM
same,"EC50, CellTiter-Glo",HDQ-P1 [24],4740 nM
same,"EC50, CellTiter-Glo",MDA-MB-436 [26],27.6 nM
same,"EC50, CellTiter-Glo",MDA-MB-468 [28],5910 nM
same,"EC50, CellTiter-Glo",MFM-223 [29],> 10000 nM
same,"EC50, CellTiter-Glo",SK-BR-3 [30],3820 nM
same,"EC50, CellTox Green",BT-549 [32],> 10000 nM
same,"EC50, CellTox Green",CAL-51 [33],3380 nM
same,"EC50, CellTox Green",MDA-MB-436 [36],15.7 nM
same,"EC50, CellTox Green",MDA-MB-468 [16],5470 nM
